Consider two molecules from patent publication US11691984B2, “Compounds and methods for DCAF-mediated protein degradation” (The Scripps Research Institute, priority 2018, dated 2023).

Data set [1] has as its target T1, BRD4 and DCAF16 (Homo sapiens, UniProt O60885+Q9NXF7).
T1 construct: expressed in transfected cells; host or cells: HEK293T (pRK5 vectors)
Put plainly: Co-immunoprecipitation of BRD4-FLAG with HA-DCAF16 in HEK293T cells. The data set is classed as cell-based. The following applies: 10 μM KB02-JQ1, 10 μM MG132, 2 hours. The method, then:
(§1) Cells were collected and lysed in 1% NP-40 lysis buffer (25 mM Tris-HCl pH 7.4, 150 mM NaCl, 10% glycerol, 1% Nonidet P-40) with complete protease inhibitor cocktail (Roche). Cells were vortexed and sonicated for 5 pulses (40%, 4). The supernatant was collected after centrifugation at 16,000 g for 10 min at 4° C. Protein concentration was determined by DC assay (Bio-Rad). Protein lysate was heated at 95° C. for 5 min in 1× Laemmli sample buffer. Proteins were resolved by 12% or 14% Novex Tris-Glycine Mini Gels (Invitrogen) and transferred to polyvinylidene fluoride (PVDF) membrane (0.2 Bio-Rad). The membrane was blocked with 5% BSA in TBST buffer (0.1% Tween 20, 20 mM Tris-HCl 7.6, 150 mM NaCl) at room temperature for 1 h. The antibody was diluted with fresh 5% BSA in TBST buffer (1:10000 dilution for FLAG, HA and β-Actin, 1:1000 dilution for others) and incubated with membrane (1 h room temperature for FLAG, HA and β-Actin, overnight 4° C. for others). Membrane was washed three times with TBST buffer and incubated with secondary antibody (1:5000 dilution in 5% BSA in TBST) at room temperature for 1 h. Membrane was washed three times with TBST buffer. The chemiluminescence signal in membrane was recorded after developing in ECL or ECL plus western blotting detection reagent using CL-XPosure film (Thermo Scientific). Relative band intensities were quantified using ImageJ. […]

In data set [2] the target is T2, BRD4 (Homo sapiens, UniProt O60885).
T2 construct: degradation of endogenous BRD4 in HEK293T cells; endogenous in cells; host or cells: HEK293T (A10, A16); HEK293 DCAF16+/+ and DCAF16-/- clones (A11)
Put plainly: Western blot of BRD4 in DCAF16−/− HEK293 cells. The data set is classed as cell-based. The following applies: 40 μM KB02-JQ1, 24 hours. The method, then:
(§2) DCAF16 CRISPR knockout HEK293 cell pools were generated by Synthego using nucleofection of Cas9-gRNA ribonucleoprotein (RNP) complex. Editing efficiency 48 h post nucleofection of cell pool was 88%. HEK293 editing cell pools were subjected to single cell sorting in The Flow Cytometry Core Facility at Scripps Research. Individual cell clone was grown in 96-well plate until the cells were confluent. To confirm the editing in DCAF16 gene, genomic DNAs from each clone were extracted using PureLink Genomic DNA Mini Kit (Invitrogen). DCAF16 gene was amplified by PCR and confirmed by DNA sequencing. Indel analysis was performed using ICE analysis from Synthego.
Cells were collected and lysed in 1% NP-40 lysis buffer (25 mM Tris-HCl pH 7.4, 150 mM NaCl, 10% glycerol, 1% Nonidet P-40) with complete protease inhibitor cocktail (Roche). Cells were vortexed and sonicated for 5 pulses (40%, 4). The supernatant was collected after centrifugation at 16,000 g for 10 min at 4° C. Protein concentration was determined by DC assay (Bio-Rad). Protein lysate was heated at 95° C. for 5 min in 1× Laemmli sample buffer. […] The chemiluminescence signal in membrane was recorded after developing in ECL or ECL plus western blotting detection reagent using CL-XPosure film (Thermo Scientific). Relative band intensities were quantified using ImageJ.
Background: In western blotting, separated proteins are transferred to a membrane and probed.

In data set [3] the test system is HEK293T cells. Put plainly: Cell viability assay (Cell Titer Glo). The data set is classed as cell-based, human. The protocol:
HEK293T cells were seeded in 96-well clear bottom white plate (Corning) at 3×10^4 cells per well in 100 μL of DMEM medium and grown for 24 h. The cells were treated with 0.625, 1.25, 2.5, 5, 10, 20 and 40 μM of KB02-SLF or KB02-JQ1 (DMSO stock, final DMEM concentration is 0.1% (v/v)) in 100 μL of DMEM medium for 24 h. 50 μL of Cell Titer Glo reagent (Promega) was added to each well and incubate for 10 min at room temperature. The luminescence was read on CLARIOstar (BMG LAB TECH).

For data set [4], the target named is T3, FLAG-FKBP12_NLS (Homo sapiens, UniProt P62942). Put plainly: Polyubiquitination of immunoprecipitated FLAG-FKBP12_NLS in HEK293T cells. The data set is classed as cell-based. More on the design: expressed in transfected cells; host or cells: HEK293T, (lentiviral pCDH-CMV-MCS-EF1-Puro). The following applies: KB02-SLF 5 μM, MG132 10 μM, 2 hours. The method, then: as §1
Target sequence in this assay (P62942 whole entry): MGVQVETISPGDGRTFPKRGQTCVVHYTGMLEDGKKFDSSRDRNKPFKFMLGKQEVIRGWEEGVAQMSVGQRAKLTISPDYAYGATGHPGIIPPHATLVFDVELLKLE

Data set [5] has as its target T3, FLAG-FKBP12_NLS. Put plainly: Western blot of FLAG-FKBP12_NLS in DCAF16+/+ and DCAF16−/− HEK293 clones. The arrangement: expressed in transfected cells; host or cells: HEK293 DCAF16+/+ and DCAF16-/- clones (lentiviral pCDH-CMV-MCS-EF1-Puro). The data set is classed as cell-based. The method, then:
as §2
To confirm DCAF16 knockout at the protein level, lentivirus containing FLAG-FKBP12_NLS was used to infect three wild type DCAF16 clones (clone 6, 17, 18) and three DCAF16 knockout clones (clone 3, 4, 22). Clone 6 stably expressing FLAG-FKBP12_NLS was grown in heavy SILAC DMEM medium for 5 generations. The other clones stably expressing FLAG-FKBP12_NLS were grown in light SILAC DMEM medium for 5 generations. All 6 clones were treated with 5 μM KB02-SLF and 10 μM MG132 for 2 h. Cells were collected and analyzed for FLAG-FKBP12_NLS associating proteins using the same method described below. Proteins from clone 6 (heavy labeled) were combined with the other clones (light labeled) separately and identified by LC-MS/MS.
(§3) Cells were collected and lysed in 1% NP-40 lysis buffer (25 mM Tris-HCl pH 7.4, 150 mM NaCl, 10% glycerol, 1% Nonidet P-40) with complete protease inhibitor cocktail (Roche). Cells were vortexed and sonicated for 5 pulses (40%, 4). The supernatant was collected after centrifugation at 16,000 g for 10 min at 4° C. Protein concentration was determined by DC assay (Bio-Rad). Protein lysate was heated at 95° C. for 5 min in 1× Laemmli sample buffer. Proteins were resolved by 12% or 14% Novex Tris-Glycine Mini Gels (Invitrogen) and transferred to polyvinylidene fluoride (PVDF) membrane (0.2 Bio-Rad). The membrane was blocked with 5% BSA in TBST buffer (0.1% Tween 20, 20 mM Tris-HCl 7.6, 150 mM NaCl) at room temperature for 1 h. The antibody was diluted with fresh 5% BSA in TBST buffer (1:10000 dilution for FLAG, HA and β-Actin, 1:1000 dilution for others) and incubated with membrane (1 h room temperature for FLAG, HA and β-Actin, overnight 4° C. for others). Membrane was washed three times with TBST buffer and incubated with secondary antibody (1:5000 dilution in 5% BSA in TBST) at room temperature for 1 h. Membrane was washed three times with TBST buffer. The chemiluminescence signal in membrane was recorded after developing in ECL or ECL plus western blotting detection reagent using CL-XPosure film (Thermo Scientific). Relative band intensities were quantified using ImageJ.
Target sequence in this assay (P62942 with tags, fused parts or gaps): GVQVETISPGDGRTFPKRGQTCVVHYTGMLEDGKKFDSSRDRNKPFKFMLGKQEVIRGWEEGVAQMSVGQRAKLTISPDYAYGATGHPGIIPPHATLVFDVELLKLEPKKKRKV

The target of data set [6] is T4, HA-DCAF16 (Homo sapiens, UniProt Q9NXF7).
T4 construct: expressed in transfected cells; host or cells: HEK293T (A9); DCAF16-/- HEK293 clones (A20); pRK5 vector
Put plainly: Western blot of HA-DCAF16 in DCAF16−/− cells. The data set is classed as cell-based. As to conditions: KB02-SLF 1.5 μM, 8 hours. The method, then: as §3

The test system of data set [7] is CRL(s). Put plainly: isoTOP-ABPP of ligand-engaged cysteines in HEK293T cells. The data set is classed as cell-based, human. The following applies: 10 μM KB02-SLF, 2 h. The protocol: HEK293T cells were treated with DMSO or 10 μM KB02-SLF for 2 h. Cells were collected and subjected to isoTOP-ABPP sample preparation using the same protocol as described in Backus et al., “Proteome-wide covalent ligand discovery in native biological systems”, Nature 534: 570-574 (2016).

Data set [8] deals with T5, FLAG-FKBP12 (Homo sapiens, UniProt P62942).
T5 construct: expressed in transfected cells; host or cells: HEK293T (lentiviral transduction, puromycin selection)
Put plainly: Polyubiquitination of immunoprecipitated cytosolic FLAG-FKBP12 in HEK293T cells. As to conditions: KB02-SLF 5 μM, MG132 10 μM, 2 hours. The data set is classed as cell-based. The method, then: as §1

SMILES strings stand for the structures.

T5 sequence (P62942 whole entry): as the sequence (P62942 whole entry) above
T4 sequence (Q9NXF7 whole entry): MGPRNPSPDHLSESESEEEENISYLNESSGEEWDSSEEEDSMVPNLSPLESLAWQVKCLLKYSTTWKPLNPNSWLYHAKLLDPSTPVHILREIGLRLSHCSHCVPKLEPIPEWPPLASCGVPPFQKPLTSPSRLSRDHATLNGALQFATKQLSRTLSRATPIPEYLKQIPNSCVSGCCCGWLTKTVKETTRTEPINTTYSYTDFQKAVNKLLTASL

On to `Cc1sc2c(c1C)C(c1ccc(Cl)cc1)=N[C@@H](CC(=O)NCCOCCOCCNC(=O)COc1ccc3c(c1)CCCN3C(=O)CCl)c1nnc(C)n1-2` [KB02-JQ1, (S)-2-((1-(2-chloroacetyl)-1,2,3,4-tetrahydroquinolin-6-yl)oxy)-N-(2-(2-(2-(2-(4-(4-chlorophenyl)-2,3,9-trimethyl-6H-thieno[3,2-f][1,2,4]triazolo[4,3-a][1,4]diazepin-6-yl)acetamido)ethoxy)ethoxy)ethyl)acetamide], for which the “co-immunoprecipitation of DCAF16 with BRD4” value in data set [1] is reported as “co-immunoprecipitated with BRD4 in a KB02-JQ1-dependent manner”. Besides, the “BRD4 degradation in DCAF16−/− cells” value in data set [2] is recorded as “substantially blocked”.
On to `CCC(C)(C)C(=O)C(=O)N1CCCC[C@H]1C(=O)O[C@H](CCc1ccc(OC)c(OC)c1)c1cccc(NC(=O)CCOCCOCCNC(=O)COc2ccc3c(c2)CCCN3C(=O)CCl)c1` [KB02-SLF, (R)-1-(3-(3-(2-(2-(2-((1-(2-chloroacetyl)-1,2,3,4-tetrahydroquinolin-6-yl)oxy)acetamido)ethoxy)ethoxy)propanamido)phenyl)-3-(3,4-dimethoxyphenyl)propyl (S)-1-(3,3-dimethyl-2-oxopentanoyl)piperidine-2-carboxylate], for which the “test concentrations with evidence of cytotoxicity” value in data set [3] was over 10 µM. In data set [4], the “polyubiquitination of FKBP12_NLS after shRNA knockdown of DCAF16” value is reported as “abolished KB02-SLF-induced polyubiquitination of FKBP12_NLS” and the “polyubiquitination of nuclear FKBP12_NLS” value is “induced polyubiquitination of nuclear FKBP12_NLS”. For the same molecule, in data set [5] (HEK293 clones 3, 4, 22, 0.2-5 μM, 8 h), the “degradation of FKBP12_NLS in DCAF16−/− clones” value was “not in any of the three DCAF16−/− clones”. Further, the “degradation of FKBP12_NLS in DCAF16+/+ clones” value in data set [5] (HEK293 clones 6, 17, 18, 0.2-5 μM, 8 h) is “supported the degradation of FKBP12_NLS in all three DCAF16+/+ clones”. For the same molecule, in data set [5] (KB02-SLF 1.5 μM, 8 hours), the “FKBP12_NLS degradation in DCAF16−/− cells expressing C58S-, C173S- or C178S-DCAF16” value is “supported KB02-SLF-induced degradation of FKBP12_NLS” and the “FKBP12_NLS degradation in DCAF16−/− cells with recombinant HA-DCAF16” value is recorded as “restored KB02-SLF-induced FKBP12_NLS degradation”. Further, the “degradation of HA-DCAF16” value in data set [6] is recorded as “degradation of HA-DCAF16 was not observed”. Besides, the “strongly engaged (>75%) cysteines on CRL(s)” value in data set [7] was “cysteines were not observed on CRL(s) that were strongly engaged (>75%)”. Also, the “polyubiquitination of cytosolic FKBP12” value in data set [8] was “not cytosolic FKBP12”.
